Values of other authors, collected in US6159733A, “Method for photoinactivating malignant cells” (priority 1996, dated 2000).
Read-outs that look alike come from different tables or passages of the source.

Legend:
cancer cell = details: conditions of the CFU-GM/BFU-E survival data; cited from earlier work
malignant cells = details: cited from earlier work
pluripotent stem cells = details: Sieber, Photochem Photobiol. 46:71 (1987); cited from earlier work
[1] = tested on: cell lines in BM mixtures; details: cited from earlier work
CFU-GM = details: cited from earlier work
BFU-E = details: cited from earlier work
[2] = tested on: multidrug resistance (mdr) pump; details: cited from earlier work
cell types = details: cited from earlier work
[3] = Atzpodien, Cancer Res. 46:4892 (1986)

## CCCCN1C(=O)C(=CC=CC=C2Oc3ccccc3N2CCCS(=O)(=O)O)C(=O)N(CCCC)C1=S [MC 540, merocyanine-540]
Cancer cell
  reduction of cancer cell survival: 4-5 log10
Malignant cells
  photoinactivation of malignant cells: successfully achieved
Pluripotent stem cells
  depletion of murine pluripotent stem cells: 1 log10
[1]; BM fraction=0.95-0.99
  photoinactivation of cell lines mixed with BM: more effectively inactivated in mixtures
CFU-GM; [3]
  surviving fraction of CFU-GM: 0.18
CFU-GM; Gulliya, Blood 73:1059 (1989)
  surviving fraction of CFU-GM: 0.17
BFU-E; [3]
  surviving fraction of BFU-E: 0.14
BFU-E; Gulliya, Blood 73:1059 (1989)
  surviving fraction of BFU-E: 0.04

## COc1ccc(CCN(C)CCCC(C#N)(c2ccc(OC)c(OC)c2)C(C)C)cc1OC (stereo not drawn) [verapamil]
[2]
  inhibition of the multidrug resistance (mdr) pump: known inhibitor

## Photofrin
Cell types; Williams, Photochem. Photobiol. 46:733 (1987)
  relation of uptake and photosensitivity: increased uptake resulted in increased photosensitivity for each cell type
Cell types; despite significant differences in photosensitizer uptake
  differences in photoinactivation between cell types: marginal differences in photoinactivation

## benzoporphyrinderivative monoacid ring A [BPD-MA]
Cancer cell
  reduction of cancer cell survival: 4-5 log10
CFU-GM; cfu-gm
  surviving fraction of CFU-GM: 0.04
BFU-E; bfu-e
  surviving fraction of BFU-E: 0.05

## dihematoporphyrin ether [DHE]
Cancer cell
  reduction of cancer cell survival: 4-5 log10
Malignant cells
  photoinactivation of malignant cells: successfully achieved
CFU-GM; Atzpodien, Blood 70:484 (1987)
  surviving fraction of CFU-GM: 0.29
CFU-GM; Lemoli, Blood 81:793 (1993)
  surviving fraction of CFU-GM: 0.05
BFU-E; Atzpodien, Blood 70:484 (1987)
  surviving fraction of BFU-E: 0.47
BFU-E; Lemoli, Blood 81:793 (1993)
  surviving fraction of BFU-E: 0.10

## sulphonate aluminum phthalocyanine [AlSPc]
Cancer cell
  reduction of cancer cell survival: 4-5 log10
Malignant cells
  photoinactivation of malignant cells: successfully achieved
[1]; BM fraction=0.99
  photoinactivation of cell lines mixed with BM: photoinactivated as effectively as unmixed cell lines
CFU-GM; cfu-gm
  surviving fraction of CFU-GM: 0.60
